Data from patent publication US9326938B2 (National Yang Ming Unviversity, priority 2013, dated 2016).

Tests used:
[1] = test system: HCT116 tumor-bearing mice; assay: In vivo antitumor activity; parameters: species or system Balb-c/nude mice; settings: 10 mg/kg i.v. on days 0 and 7, compared to control mice
Experimental: (§1) The HCT116 cells were transplanted subcutaneously into the rear of 4-week female Balb-c/nude mice (1×10^6 cells/0.1 mL) At 4-6 weeks post-transplantation, HCT116 tumor-bearing mice (tumor volume: approximately 500 mm^3) were used in the antitumor activity study. Mice were treated i.v. via the tail vein on days 0 and 7. Animals were then injected with a drug PBS solution (free Dox, Dox-loaded polymer-incorporated nanoparticles, and Dox-loaded oligomer-contained nanoparticle complexes at a dose of 10 mg/kg). Tumor size was measured three weekly using a Vernier's caliper. To evaluate animal wellness and clinical status, the body weight of mice was recorded.

[2] = Body weight of mice in antitumor study; format: in vivo, Balb-c/nude mice; settings: 10 mg/kg i.v. on days 0 and 7, during the administration period
Experimental: as §1

Question: Which Tumor growth [1] does the source give for `COc1cccc2c1C(=O)c1c(O)c3c(c(O)c1C2=O)C[C@@](O)(C(=O)CO)C[C@@H]3O[C@H]1C[C@H](N)[C@H](O)[C@H](C)O1` [free Dox, doxorubicin] here?
Answer: The Tumor growth was “inhibited tumor growth”.

Question: And the “Body weight of mice” value [2]?
Answer: The value was “obvious weight loss”.
